Structures are written as SMILES. Where a SMILES comes first, the peptide text is derived from it. Bridges are numbered along the chain shown (N, C = ends). [ ]: non-standard residue; d: D form. The star is where a group is joined. Ileψ(thiazoline)Cys = CC[C@H](C)[C@H](N)C1=N[C@H](C(=O)*)CS1; dOrn = NCCC[C@@H](N)C(=O)O

This is an account of results in ChEMBL document CHEMBL1909046, “DrugMatrix in vitro pharmacology data”.

In assay [1] the target is T1, Receptor-type tyrosine-protein phosphatase C (Homo sapiens, UniProt P08575).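 Further: inhibition of CD45 enzyme activity measured using DiFMUP as substrate; in other assays of this panel Not Active means under 50% inhibition at 10 µM.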
T1 sequence (P08575 whole entry): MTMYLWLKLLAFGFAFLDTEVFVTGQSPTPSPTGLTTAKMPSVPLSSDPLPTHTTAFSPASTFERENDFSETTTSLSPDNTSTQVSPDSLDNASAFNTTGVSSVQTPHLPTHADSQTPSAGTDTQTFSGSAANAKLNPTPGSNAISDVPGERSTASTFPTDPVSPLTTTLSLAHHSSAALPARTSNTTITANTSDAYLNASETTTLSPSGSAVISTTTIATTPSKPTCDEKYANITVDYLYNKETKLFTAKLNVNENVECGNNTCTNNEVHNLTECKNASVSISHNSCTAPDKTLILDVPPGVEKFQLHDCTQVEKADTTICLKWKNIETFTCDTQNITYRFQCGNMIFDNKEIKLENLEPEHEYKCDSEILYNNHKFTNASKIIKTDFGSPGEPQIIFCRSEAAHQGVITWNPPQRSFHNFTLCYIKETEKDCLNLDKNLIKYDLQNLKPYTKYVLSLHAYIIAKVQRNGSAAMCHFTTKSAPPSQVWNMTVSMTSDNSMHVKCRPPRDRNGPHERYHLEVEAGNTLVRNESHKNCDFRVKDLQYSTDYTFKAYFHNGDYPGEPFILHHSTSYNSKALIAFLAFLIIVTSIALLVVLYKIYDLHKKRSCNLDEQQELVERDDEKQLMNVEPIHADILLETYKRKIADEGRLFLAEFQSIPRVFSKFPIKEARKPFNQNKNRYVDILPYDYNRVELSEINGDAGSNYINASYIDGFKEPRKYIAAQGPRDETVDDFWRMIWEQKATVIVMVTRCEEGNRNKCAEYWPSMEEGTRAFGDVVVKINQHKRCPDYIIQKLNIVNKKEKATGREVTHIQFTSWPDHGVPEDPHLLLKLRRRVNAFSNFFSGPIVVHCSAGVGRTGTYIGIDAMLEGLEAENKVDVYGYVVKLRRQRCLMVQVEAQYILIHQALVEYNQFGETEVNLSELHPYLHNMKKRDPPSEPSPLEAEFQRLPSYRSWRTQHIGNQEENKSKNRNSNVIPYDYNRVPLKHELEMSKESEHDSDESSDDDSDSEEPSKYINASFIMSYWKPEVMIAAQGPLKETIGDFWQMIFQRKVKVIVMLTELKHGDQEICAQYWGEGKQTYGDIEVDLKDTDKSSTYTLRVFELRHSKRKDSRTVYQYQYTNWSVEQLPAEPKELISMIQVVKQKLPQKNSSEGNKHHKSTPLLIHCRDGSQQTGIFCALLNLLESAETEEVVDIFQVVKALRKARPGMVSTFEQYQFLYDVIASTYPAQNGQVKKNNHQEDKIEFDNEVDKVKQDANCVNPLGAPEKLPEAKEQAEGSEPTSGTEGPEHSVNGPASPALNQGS
Set-up: species or system Escherichia coli.

Assay [2] is described as follows: DRUGMATRIX: Sodium/nucleoside co-transporter radioligand binding (ligand: nitrobenzylthioinosine). Type of assay: cell membranes, Cavia porcellus, Dunkin-Hartley, Cerebral cortex, Membrane. The note with it: Not Active = under 50% inhibition at 10 µM.
Assay [3] addresses Aldo-keto reductase family 1 member B1 (Rattus norvegicus, UniProt P07943). Type of assay: tissue-based, Lens of camera-type eye.
Assay [4] has as its target T2, Alpha-2A adrenergic receptor (Homo sapiens, UniProt P08913). Further: in other assays of this panel Not Active means under 50% inhibition at 10 µM.
T2 sequence (P08913 whole entry): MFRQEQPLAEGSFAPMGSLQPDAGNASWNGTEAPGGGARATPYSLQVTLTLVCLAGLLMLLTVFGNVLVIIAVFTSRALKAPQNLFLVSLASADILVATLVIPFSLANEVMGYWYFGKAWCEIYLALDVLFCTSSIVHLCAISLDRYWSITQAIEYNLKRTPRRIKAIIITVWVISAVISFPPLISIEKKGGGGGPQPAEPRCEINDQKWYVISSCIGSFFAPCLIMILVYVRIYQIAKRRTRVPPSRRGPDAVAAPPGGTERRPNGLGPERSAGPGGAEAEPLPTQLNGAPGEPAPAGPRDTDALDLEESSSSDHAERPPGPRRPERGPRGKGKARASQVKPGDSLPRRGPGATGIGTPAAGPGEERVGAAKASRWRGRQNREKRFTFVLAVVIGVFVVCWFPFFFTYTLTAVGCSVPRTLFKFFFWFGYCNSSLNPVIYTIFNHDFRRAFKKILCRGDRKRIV
Type of assay: cell membranes, Sf9, Membrane. The note with it: for Ki: read-out: Ki.

Assay [5] deals with T3, Type-2 angiotensin II receptor (Homo sapiens, UniProt P50052).
T3 sequence (P50052 whole entry): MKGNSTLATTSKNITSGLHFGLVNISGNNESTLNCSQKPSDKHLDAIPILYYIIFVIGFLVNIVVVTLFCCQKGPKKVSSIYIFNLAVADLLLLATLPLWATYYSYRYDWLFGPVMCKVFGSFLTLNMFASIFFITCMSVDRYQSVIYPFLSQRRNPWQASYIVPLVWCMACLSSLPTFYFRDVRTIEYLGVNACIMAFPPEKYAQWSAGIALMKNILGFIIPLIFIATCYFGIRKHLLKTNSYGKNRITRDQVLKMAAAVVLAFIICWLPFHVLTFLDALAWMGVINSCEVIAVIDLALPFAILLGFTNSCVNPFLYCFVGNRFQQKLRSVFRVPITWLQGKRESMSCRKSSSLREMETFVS
Type of assay: cell-based. The note with it: cho-k1.

Assay [6] deals with T4, Muscarinic acetylcholine receptor M5 (Homo sapiens, UniProt P08912).
T4 sequence (P08912 whole entry): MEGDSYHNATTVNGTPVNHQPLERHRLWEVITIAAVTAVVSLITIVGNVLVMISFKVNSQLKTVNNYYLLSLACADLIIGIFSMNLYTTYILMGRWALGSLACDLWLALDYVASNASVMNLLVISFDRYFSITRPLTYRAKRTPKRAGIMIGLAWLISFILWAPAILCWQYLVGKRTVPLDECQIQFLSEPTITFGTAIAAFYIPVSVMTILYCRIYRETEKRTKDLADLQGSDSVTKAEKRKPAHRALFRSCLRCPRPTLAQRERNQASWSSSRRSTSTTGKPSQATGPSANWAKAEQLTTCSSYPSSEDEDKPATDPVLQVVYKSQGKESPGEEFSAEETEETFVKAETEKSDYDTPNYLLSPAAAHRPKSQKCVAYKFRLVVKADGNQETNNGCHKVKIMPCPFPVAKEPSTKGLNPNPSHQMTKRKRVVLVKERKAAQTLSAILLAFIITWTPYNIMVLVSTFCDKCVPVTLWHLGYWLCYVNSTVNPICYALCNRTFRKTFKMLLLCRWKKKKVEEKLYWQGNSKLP
Type of assay: cell membranes, CHO-K1, Membrane.

Assay [7] deals with Sodium-dependent dopamine transporter (Homo sapiens, UniProt Q01959). The experiment in a line: DRUGMATRIX: Dopamine Transporter radioligand binding (ligand: [125I] RTI-55). Type of assay: cell membranes, CHO-K1, Membrane. The note with it: Not Active = under 50% inhibition at 10 µM; for Ki: read-out: Ki.
Sequence of Sodium-dependent dopamine transporter (Q01959 whole entry): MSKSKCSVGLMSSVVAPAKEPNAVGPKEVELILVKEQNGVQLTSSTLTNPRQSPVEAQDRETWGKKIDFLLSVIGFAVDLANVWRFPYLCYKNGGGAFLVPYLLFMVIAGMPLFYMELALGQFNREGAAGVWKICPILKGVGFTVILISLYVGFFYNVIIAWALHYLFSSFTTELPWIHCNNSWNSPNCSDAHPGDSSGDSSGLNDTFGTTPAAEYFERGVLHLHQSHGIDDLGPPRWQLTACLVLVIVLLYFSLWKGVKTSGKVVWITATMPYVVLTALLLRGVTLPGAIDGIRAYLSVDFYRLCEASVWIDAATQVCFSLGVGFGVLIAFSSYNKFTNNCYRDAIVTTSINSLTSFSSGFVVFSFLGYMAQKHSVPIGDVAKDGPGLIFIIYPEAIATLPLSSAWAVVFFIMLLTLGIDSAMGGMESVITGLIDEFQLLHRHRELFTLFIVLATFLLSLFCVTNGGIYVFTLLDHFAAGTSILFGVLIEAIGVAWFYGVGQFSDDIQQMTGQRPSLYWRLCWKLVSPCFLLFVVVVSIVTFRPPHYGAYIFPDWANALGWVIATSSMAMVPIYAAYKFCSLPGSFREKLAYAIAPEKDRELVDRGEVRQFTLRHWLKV

Turning to `Fc1ccc([C@@H]2CCNC[C@H]2COc2ccc3c(c2)OCO3)cc1` [PAROXETINE], the IC50 entry in assay [1], in assay [2], in assay [3], in assay [4] (sf9) and in assay [5] was “Not Active” in each case. Moreover, the Ki (as a rule, a measure of affinity in units of concentration, obtained from inhibition or displacement) in assay [2] is listed as “Not Active”.
Take `COC1=CC(=O)C[C@@H](C)[C@]12Oc1c(Cl)c(OC)cc(OC)c1C2=O` [GRISEOFULVIN]: the half-maximal inhibitory concentration (IC50) result in assay [1], in assay [2], in assay [3], in assay [6] (cho-k1), in assay [4] (sf9) and in assay [7] (cho-k1) was “Not Active” each time. For the same compound, the 50% inhibitory concentration (IC50) – broadly, the concentration that inhibits the measured activity by half – in assay [5] was “Not Active”. Further, the inhibitory constant (Ki) entry in assay [2] is reported as “Not Active”.
In the case of `CC[C@H](C)[C@H](N)C1=N[C@H](C(=O)N[C@@H](CC(C)C)C(=O)N[C@H](CCC(=O)O)C(=O)N[C@H](C(=O)N[C@H]2CCCCNC(=O)[C@H](CC(N)=O)NC(=O)[C@@H](CC(=O)O)NC(=O)[C@H](Cc3cnc[nH]3)NC(=O)[C@@H](Cc3ccccc3)NC(=O)[C@H]([C@@H](C)CC)NC(=O)[C@@H](CCCN)NC2=O)[C@@H](C)CC)CS1` [BACITRACIN] ({Ileψ(thiazoline)Cys}-L[dE]IK[dOrn]I[dF]H[dD]N; lactam 4-C), the IC50 result in assay [1], in assay [2], in assay [3], in assay [6] (cho-k1), in assay [4] (sf9) and in assay [7] (cho-k1) was “Not Active” each time. The IC50 entry in assay [5] is recorded as “Not Active”. Further, the inhibition constant (Ki) entry in assay [2] is “Not Active”.
Consider `CCCC[C@@H](CC)COC(=O)c1ccccc1C(=O)OC[C@@H](CC)CCCC` [BIS(2-ETHYLHEXYL)PHTHALATE], for which the IC50 entry in assay [1], in assay [2], in assay [3], in assay [6] (cho-k1), in assay [4] (sf9) and in assay [7] (cho-k1) was “Not Active” each time. Further, the concentration for half-maximal inhibition (IC50) result in assay [5] was “Not Active”. In assay [2], the Ki result is reported as “Not Active”.
With `O=P1(NCCCl)OCCCN1CCCl` (configuration not stated) [IFOSFAMIDE], the IC50 entry in assay [1], in assay [2], in assay [3], in assay [6] (cho-k1), in assay [4] (sf9) and in assay [7] (cho-k1) was “Not Active” each time. Also, the 50% inhibitory concentration (IC50) entry in assay [5] is recorded as “Not Active”. For the same compound, the inhibitory constant (Ki) entry in assay [2] is listed as “Not Active”.
As for `Nc1nc(=O)[nH]cc1F` [FLUCYTOSINE], the IC50 entry in assay [1], in assay [2], in assay [3], in assay [6] (cho-k1), in assay [4] (sf9) and in assay [7] (cho-k1) was “Not Active” each time. Also, the IC50 entry in assay [5] is “Not Active”. The inhibition constant Ki result in assay [2] was “Not Active”.
For `N#C[C@H](O[C@@H]1O[C@H](CO[C@@H]2O[C@H](CO)[C@@H](O)[C@H](O)[C@H]2O)[C@@H](O)[C@H](O)[C@H]1O)c1ccccc1` [AMYGDALIN], the IC50 entry in assay [1], in assay [2], in assay [3], in assay [6] (cho-k1), in assay [4] (sf9) and in assay [7] (cho-k1) was “Not Active” throughout. The concentration for half-maximal inhibition (IC50) result in assay [5] was “Not Active”. Moreover, in assay [2], the inhibition constant Ki result is “Not Active”.
`Oc1c(Cl)cc(Cl)cc1Sc1cc(Cl)cc(Cl)c1O` [BITHIONOL]: the IC50 entry in assay [1] is “Not Active”; in assay [2], “Not Active”; in assay [3], “Not Active”; in assay [6] (cho-k1), “Not Active”; in assay [4] (read-out: IC50), 3820 nM; in assay [5], “Not Active”. The Ki entry in assay [2] was “Not Active”; in assay [4] it was 1430 nM.
As for `CC(/C=C1\SC(=S)N(CC(=O)O)C1=O)=C\c1ccccc1`, the IC50 entry in assay [1], in assay [2], in assay [6] (cho-k1), in assay [4] (sf9), in assay [7] (cho-k1) and in assay [5] was “Not Active” throughout. For the same compound, the Ki result in assay [2] is “Not Active”.
With `CCCCCCCCCc1ccc(O)cc1` [4-NONYLPHENOL], the IC50 result in assay [1] was “Not Active”; in assay [2] it was “Not Active”; in assay [3], “Not Active”; in assay [4] (read-out: IC50), 6780 nM; in assay [7] (read-out: IC50), 1650 nM; in assay [5], “Not Active”. The Ki result is “Not Active” in assay [2], 2540 nM in assay [4] and 1310 nM in assay [7].
For `CNCCC=C1c2ccccc2CCc2ccccc21` [NORTRIPTYLINE], the 50% inhibitory concentration (IC50) result is “Not Active” in assay [1]; “Not Active” in assay [2]; “Not Active” in assay [3]; 27 nM in assay [6] (read-out: IC50); 1680 nM in assay [7] (read-out: IC50); “Not Active” in assay [5]. Also, the Ki result in assay [2] is “Not Active”; in assay [6] (read-out: Ki) it was 20 nM; in assay [7] it was 1330 nM.
